In test [1] the test system is blood vessel development and/or lymphangiogenesis in Xenopus embryos. Format: in vivo, Xenopus laevis. In a few lines: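 Albino Xenopus embryos treated at 20 μM final (from 10-mM DMSO stocks) in screening medium, 7 per well, from stage 31 (37 hpf) to stage 35/36 (50 hpf) or 42 (80 hpf). Fixed in 4% paraformaldehyde and scored by whole-mount in situ hybridization: vasculogenesis and intersomitic vein angiogenesis at stage 35/36, lymph vessel development at stage 42.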

A further test has as its system HUVEC. As to the kind of experiment: HUVEC tube formation assay. Format: cell-based, human. To be noted: Homo sapiens, HUVEC, 1 μM in 0.1% DMSO. In outline:
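HUVEC and LEC in EBM with 20% FBS, hydrocortisone and dibutyryl-cAMP, up to eleven passages, treated overnight at 37 °C with compound at 1 μM in 0.1% DMSO, then fixed in 4% paraformaldehyde. Read-out: total tube length (μm) per area over three hotspot images per well, triplicate wells.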

The text below walks through data of patent US9945845B2, “Methods of screening using amphibians” (priority 2009, dated 2018).

Molecules are shown by their SMILES. Where two headings read alike, the source gives them in different places.

Consider `Oc1cc(-c2ccccc2)nc2nc(Cl)ccc12` [7-Chloro-4-hydroxy-2-phenyl-1,8-naphthyridine], for which the “blood vessel development phenotype (apj expression, in words)” value in test [1] (20 μM from stage 31, fixed at stage 35/36) was “interfered not only with ISV angiogenesis but also with VVN assembly”. Besides, the “lymph vessel development phenotype (vegfr3 expression, in words)” value in test [1] (20 μM from stage 31, fixed at stage 42) was “stunted, disorganized lymphatic vessels arising from the ALS and ALH”. In addition, in test [1] (anterior lymph heart, Xenopus embryos), the ALH phenotype result is “dysplastic”. In addition, the ALS phenotype entry in test [1] (anterior lymph sac, Xenopus embryos) is “stunted”. Besides, in test [1] (intersomitic vessels, Xenopus embryos), the ISV phenotype entry was “stunted”. In addition, in test [1] (posterior cardinal vein, Xenopus embryos), the PCV phenotype entry is given as “normal”. Besides, the PLV phenotype entry in test [1] (posterior lymph vessels, Xenopus embryos) is on record as “hypoplastic”. Further, in test [1] (vitelline vein network, Xenopus embryos), the VVN phenotype entry is on record as “hypoplastic”. Also, the activity at 1 µM with HUVEC (overnight, read-out: HUVEC tube formation) was in the range of 50 to 85%; with HUVEC (read-out: HUVEC tube formation (tube length)), 50 to 85%.
